In patent US11419869B2, “Dosage forms and regimens for amino acid compounds” (Pliant Therapeutics, Inc., priority 2019, dated 2022):

Columns and labels:
[1] = test system: normal bronchial epithelial cell adhesion to LAP; assay: normal bronchial epithelial cell adhesion to LAP (FIG. 3A); type: cell-based
[2] = test system: IPF-derived human lung fibroblasts; assay: LAP adhesion binding assay, IPF-derived human lung fibroblasts; type: cell-based; conditions: adhesion to LAP, cell index (electrical impedance), FIG. 3B
Description: Two latency associated peptide (LAP) adhesion binding assays were devised using primary human lung cells, including normal (healthy) human bronchial epithelial cells and human lung fibroblasts (healthy and IPF).
Human lung fibroblasts derived from normal and IPF lung tissue are known to express αvβ1 integrin. The IPF-derived human lung fibroblasts were prepared for the assay by dissociation with trypsin/EDTA, and were seeded at 20,000 cells per well on 96 well plates (ACEA Bioscience E-plate View, Acea Biosciences; San Diego, Calif.) previously coated with 5 μg/ml of recombinant human LAP (R&D Systems; Minneapolis, Minn.) and blocked with 4% bovine serum albumin. Cell index (electrical impedance) was measured to assess cell attachment/spreading every 3 minutes for 24 hours at 37° C./5% CO2 using the xCELLigence RTCA MP Instrument (Acea Biosciences; San Diego, Calif.). […] In the assay, the IPF-derived human lung fibroblasts were separately incubated with: the αvβ1-selective small molecule inhibitor; the selective antibody αvβ6 inhibitor, 3G9; and compound 5.

[3] = test system: Type I Collagen gene Col1a1 expression; assay: Precision cut lung slices, mice under acute bleomycin exposure (Example B8); type: cell-based; conditions: 3 days culture, normalized to DMSO, FIG. 5A
Description: Mice (C57BL/6) were administered 3 U/kg of bleomycin (Teva Pharmaceuticals; North Wales, Pa.) on day 0 via oropharyngeal aspiration while under anesthesia. On day 14, precision cut lung slices were obtained. Following euthanization, 2% low gelling temp agarose was injected into the mouse lungs via the trachea. […] The lobes were then subjected to precision slicing to obtain samples for culture using a microtome (Compresstome VF-300-0Z, Precisionary; Greenville, N.C.). Individual slices were distributed in a multiwell culture plate and cultured for 3 days under control (DMSO) and test compound conditions.

lung Col1a1 expression [4] = assay: Precision cut lung slices, mice under chronic bleomycin exposure (Example B9); type: cell-based; conditions: 7 days culture, normalized to DMSO, FIG. 5B
Description: (§1) Mice (C57BL/6) were administered 3 U/kg of bleomycin (Teva Pharmaceuticals; North Wales, Pa.) on Day 0 and 1 U/kg of bleomycin on days 14, 28, 42 and 56 via oropharyngeal aspiration while under anesthesia. At day 70, 14 days after the final bleomycin insult, precision cut lung slices were obtained. Following euthanization, 2% low gelling temp agarose was injected into the mouse lungs via the trachea. […] The lobes were then subjected to precision slicing to obtain samples for culture using a microtome (Compresstome VF-300-0Z, Precisionary; Greenville, N.C.). Individual slices were distributed in a multiwell culture plate and cultured for 7 days under control (DMSO) and test compound conditions. The viability of the slices over the course of culturing was confirmed by WST-1 assay of mitochondrial activity.
During the culture period, slices in the control group were treated with DMSO and slices in the test group were treated with a DMSO solution of one of: the selective antibody αvβ6 inhibitor 3G9; the αvβ1-selective small molecule inhibitor; a combination of the selective antibody αvβ6 inhibitor 3G9 and the αvβ1-selective small molecule inhibitor; compound 5; and the small molecule ALK5 inhibitor. The selective αvβ1 and αvβ6 integrin inhibitors were analyzed at ≥their respective IC90 concentrations for inhibition of TGF-beta activation. […]

lung Col1a1 expression [5] = assay: Precision cut lung slices, chronic bleomycin, versus pirfenidone and nintedanib (Example B10); type: cell-based, mice; conditions: 7 days culture, vs DMSO vehicle, FIG. 6A
Description: as §1, with “following” for “after”
During the culture period, slices in the control group were treated with DMSO and slices in the test group were treated with a DMSO solution of one of compound 5; nintedanib; pirfenidone; a combination of nintedanib and compound 5; a combination of pirfenidone and compound 5; or the small molecule ALK5 inhibitor. Compound 5 was […] effective to equal or exceed its respective IC50 values at αvβ6 and αvβ1. The small molecule ALK5 inhibitor was analyzed at […] its reported IC50 value. Nintendanib and pirfenidone were analyzed at concentrations 10× their reported therapeutic concentrations.

pSMAD2/SMAD2 ratio = assay: Precision cut lung slices from human IPF lung tissue, pSMAD2/SMAD2 ratio; type: cell-based; conditions: PCLS from 3 IPF lung tissues, seven days, Compound 5 at 1.82 μM, FIG. 6F
Description: PCLS from 3 IPF lung tissues were cultured for seven days with Compound 5. […] The ratio of pSMAD2/SMAD2 is also graphed for the PCLS in the presence of 0.1% DMSO control, and an Alk5 inhibitor at 1 μM

pSMAD2:SMAD2 ratio = assay: pSMAD2/SMAD2 in BAL from healthy human subjects (Example B13); type: in vivo; conditions: Day 7, subjects with Cmax above 700 ng/mL, compared to placebo group, 20 or 40 mg daily
Description: In order to evaluate the change of pSMAD2 as a biomarker of TGF-β activity following administration of an integrin inhibitor, and to determine a therapeutically effective dosage and an effective blood plasma Cmax of the integrin inhibitor, healthy subjects were administered compound 5, a dual selective αvβ6/αvβ1-integrin inhibitor, and the corresponding Cmax levels and decrease in phosphorylation levels and were determined.
Healthy non-smoking adult males without history of lung disease were selected as subjects and were randomized into 4 cohorts. Broncoalevaolar lavage samples were obtained from all subjects 1 day prior to start of treatment. Cohorts 1 and 2 were administered 20 mg of a compound daily, wherein 3 subjects were administered the dual selective αvβ6/αvβ1-integrin inhibitor (compound 5) per every 1 subject receiving a placebo compound. Cohorts 3 and 4 were administered 40 mg of a compound daily, wherein 3 subjects were administered the dual selective αvβ6/αvβ1-integrin inhibitor (compound 5) per every 1 subject receiving a placebo compound. BAL samples and blood samples were taken from all subjects on Day −1 (baseline) and on Day 7 (end of treatment).

COCCN(CCCCc1ccc2c(n1)NCCC2)CC[C@H](Nc1ncnc2ccccc12)C(=O)O [Compound 5, (S)-4-((2-methoxyethyl) (4-(5,6,7,8-tetrahydro-1,8-naphthyridin-2-yl)butyl)amino)-2-(quinazolin-4-ylamino) butanoic acid]
normal bronchial epithelial cell adhesion to LAP [1]: substantially inhibited | cell adhesion in the IPF-derived lung fibroblasts [2]: substantially inhibited | Type I Collagen gene Col1a1 expression [3]: decreased Type I Collagen gene Col1a1 expression substantially | lung Col1a1 expression (lung Col1a1 expression [4]): decreased lung Col1a1 expression substantially | lung slice Col1a1 expression (lung Col1a1 expression [5]): substantial, statistically significant (p<0.01 vs vehicle) decrease | reduction of pSMAD2/SMAD2 ratio (pSMAD2/SMAD2 ratio): approximately 50% | reduction in pSMAD2:SMAD2 ratio (pSMAD2:SMAD2 ratio): ≥ 50%
